Laboratory results: patent US11872221B2, “Treating untreated or treatment-resistant diabetes with glucokinase activator” (HUA Medicine (Shanghai) Ltd., priority 2020, dated 2024)
Where two headings read alike, the source gives them in different places.

What was measured:
Assay type in all cases: in vivo, human
C-peptide = experiment: Oral glucose tolerance test, C-peptide response (serum); conditions: for C-peptide CEmax, Mean (SD): baseline corrected, OGTT 75 g glucose 30 min after dose, T2DM subjects, sitagliptin 100 mg QD, dorzagliatin 75 mg BID; for C-peptide AUEC0-4h, GMR (%) / C-peptide CEav, GMR (%) / C-peptide CEmax, GMR (%): printed in the monotherapy column, apparently combination vs that monotherapy
Description: (§1) This phase I study accessed the pharmacokinetic interaction between dorzagliatin and sitagliptin in T2DM subjects. This study also evaluated the safety and tolerability of dorzagliatin with simultaneous administration of sitagliptin in T2DM subjects. Moreover, this study accessed the pharmacodynamic responses of glucose, GLP-1, glucagon, insulin, and C-peptide following dorzagliatin, sitagliptin, or simultaneous administration of dorzagliatin and sitagliptin in T2DM subjects.
(§2) Study drugs are each taken 60 (±5) min prior to meals.
(§3) Subjects consumed a 75-gram glucose solution 30 min following study drug dose administration on Days 5, 10 and 15 in lieu of breakfast. Pharmacodynamic (PD) responses were evaluated by measuring GLP-1 and glucagon levels in plasma, and glucose, insulin, and C-peptide in serum within 60 min prior to oral glucose intake and 0.5, 1, 1.5, 2, 2.5, 3 and 4 h after oral glucose intake.

insulin = experiment: Oral glucose tolerance test, insulin response (serum); conditions: printed in the monotherapy column; apparently combination vs that monotherapy
Description: as §1, §2, §3

[1] = Phase 1 drug-drug interaction study, plasma pharmacokinetics of dorzagliatin and sitagliptin; conditions: for AUC(0-t) / Cmax: human, plasma, oral, T2DM subjects
Description: as §1, §2
Blood samples for the determination of dorzagliatin and sitagliptin concentrations and corresponding pharmacokinetic (PK) analysis were collected on Days 5, 10 and 15: pre-dose (within 30 min prior to dosing), and 0.25, 0.5, 1, 1.5, 2, 3, 4, 6, 8, 10, 12, 18, and 24 h post dose.
Dorzagliatin was provided as a film-coated tablets in 75 mg strength for oral administration 60 min prior to a meal. Sitagliptin was provided as JANUVIA® 100 mg tablets for oral administration 60 min prior to a meal. The total duration of participation in the study for each subject was about 59 days (up to 28-day screening period, 12-day run-in period, and 19-day in-clinic period).
The plasma concentration-time data for dorzagliatin and sitagliptin were analyzed using noncompartmental methods to calculate pharmacokinetic parameters.

glucose = experiment: Oral glucose tolerance test, glucose response (serum); conditions: for Glucose AUEC0-4h, Mean (SD) / Glucose CEav, Mean (SD) / Glucose CEmax, Mean (SD): baseline corrected, OGTT 75 g glucose 30 min after dose, T2DM subjects, sitagliptin 100 mg QD, dorzagliatin 75 mg BID; for Glucose AUEC0-4h, GMR (%) / Glucose CEav, GMR (%) / Glucose CEmax, GMR (%): printed in the monotherapy column, apparently combination vs that monotherapy
Description: as §1, §2, §3

SMILES | C-peptide CEmax, Mean (SD) (C-peptide) [ng/mL] | C-peptide AUEC0-4h, GMR (%) (C-peptide) | C-peptide CEav, GMR (%) (C-peptide) | C-peptide CEmax, GMR (%) (C-peptide) | Insulin AUEC0-4h, GMR (%) (insulin) | Insulin CEav, GMR (%) (insulin) | Insulin CEmax, GMR (%) (insulin) | Glucose AUEC0-4h, Mean (SD) (glucose) | Glucose CEav, Mean (SD) (glucose) | Glucose CEmax, Mean (SD) (glucose) | Glucose AUEC0-4h, GMR (%) (glucose) | Glucose CEav, GMR (%) (glucose) | Glucose CEmax, GMR (%) (glucose) | also measured
CC(C)C[C@@H](C(=O)Nc1ccn(C[C@@H](O)CO)n1)N1CC(Oc2ccccc2Cl)=CC1=O [Dorzagliatin, (S)-2-(4-(2-chlorophenoxy)-2-oxo-2,5-dihydro-1H-pyrrol-1-yl)-N-(1-((R)-2,3-dihydroxypropyl)-1H-pyrazol-3-yl)-4-methylpentanamide] | 4.2 | 143 | 143 | 145 | 159 | 159 | 146 | 339 (124) h · mg/dL | 84.8 (31) mg/dL | 163 (39) mg/dL | 69 | 69 | 83 | Percent ratio of geometric means (GMR) of dorzagliatin Cmax ([1]; dorzagliatin in combination with sitagliptin vs dorzagliatin alone, 90% CI: 87, 120): 102%; Percent GMR of dorzagliatin AUC0-24h ([1]; dorzagliatin in combination with sitagliptin vs dorzagliatin alone, 90% CI: 96, 105): 100%; AUC(0-t) ([1]; dorzagliatin 75 mg BID alone (Day 15), read-out: Least squares geometric mean AUC0-24h of plasma dorzagliatin): 6570 ng·h/mL; Cmax ([1]; dorzagliatin 75 mg BID alone (Day 15), read-out: Least squares geometric mean Cmax of plasma dorzagliatin): 814 ng/mL; AUC(0-t) ([1]; dorzagliatin 75 mg BID in combination with sitagliptin 100 mg QD (Day 10), read-out: Least squares geometric mean AUC0-24h of plasma dorzagliatin): 6590 ng·h/mL; Cmax ([1]; dorzagliatin 75 mg BID in combination with sitagliptin 100 mg QD (Day 10), read-out: Least squares geometric mean Cmax of plasma dorzagliatin): 833 ng/mL
N[C@@H](CC(=O)N1CCn2c(nnc2C(F)(F)F)C1)Cc1cc(F)c(F)cc1F [Sitagliptin, (R)-3-amino-1-(3-(trifluoromethyl)-5,6-dihydro-[1,2,4]triazolo[4,3-a]pyrazin-7(8H)-yl)-4-(2,4,5-trifluorophenyl)butan-1-one] | 5.1 | 119 | 119 | 125 | 110 | 110 | 125 | 378 (88) h · mg/dL | 94.5 (22) mg/dL | 165 (35) mg/dL | 65 | 65 | 87 | AUC(0-t) ([1]; sitagliptin 100 mg QD alone (Day 5), read-out: Least squares geometric mean AUC0-24h of plasma sitagliptin): 2940 ng·h/mL; Cmax ([1]; sitagliptin 100 mg QD alone (Day 5), read-out: Least squares geometric mean Cmax of plasma sitagliptin): 410 ng/mL; AUC(0-t) ([1]; sitagliptin 100 mg QD in combination with dorzagliatin 75 mg BID (Day 10), read-out: Least squares geometric mean AUC0-24h of plasma sitagliptin): 2720 ng·h/mL; Cmax ([1]; sitagliptin 100 mg QD in combination with dorzagliatin 75 mg BID (Day 10), read-out: Least squares geometric mean Cmax of plasma sitagliptin): 403 ng/mL; Percent GMR of sitagliptin Cmax ([1]; sitagliptin in combination with dorzagliatin vs sitagliptin alone, 90% CI: 84, 115): 98%; Percent GMR of sitagliptin AUC0-24h ([1]; sitagliptin in combination with dorzagliatin vs sitagliptin alone, 90% CI: 86, 100): 93%
